“And” between values parts separate entries of the source, which are not always exact repeats. Identical values can stand only once.
Key:
p-AKT Ser473 = experiment: Flow cytometry, basal AKT phosphorylation in CD34+ progenitor cells from MF patients; type: cell-based, human; details: one line per patient, vehicle=100
Experimental: PBMCs were isolated from whole blood of myelofibrosis (MF) patients who had not received treatments (i.e. naïve patients) or received ruxolitinib (i.e. rux-treated patients). The cells were treated with 0.02, 0.2, or 2.0 μM of Compound B or vehicle (0.1% DMSO in 0.1% FBS/RPMI) for 2 hours at 37° C. The cells were then fixed, permeabilized, and stained for FACS analysis. Antibodies specific to p-AKT Ser473 and pS6RP Ser235/236 were used to detect AKT phosphorylation (p-AKT) and S6RP phosphorylation (p-S6RP) in CD34^+/CD3^−/CD14^−/CD19/CD66^− (BD Biosciences) gated cells using flow cytometry. The percentage of basal (i.e. untreated with TPO) AKT and S6RP phosphorylation were normalized to vehicle control. A two-tailed paired t-test (GraphPad Prism) was used to calculate p-values. Values of p<0.05 were considered significant.
Similar studies were conducted with PI3K inhibitors Compounds C and D. PBMC from MF patients had received ruxolitinib (rux) and MF patient had received Compound A. The cells were treated with Compounds C or D at 0, 20.0, 200.0, 2000.0 nM for 2 hours at 37° C. Cells were treated with TPO for 10 minutes. The percentage of basal p-AKT and p-S6RP levels were normalized to vehicle control and those of TPO-treated were normalized to TPO-treated vehicle control. The PI3Kδ inhibitors Compound C is referred by the chemical names of (S)-2-(1-((9H-purin-6-yl)amino)ethyl)-6-fluoro-3-phenylquinazolin-4(3H)-one.

pS6 Ser235/236 = experiment: Western blot, TPO-activated S6 phosphorylation in BaF3/MPL cells; type: cell-based; details: then TPO
Experimental: In addition, Compound B was examined for the effects on the PI3K signaling pathway by determining the levels of AKT and S6 phosphorylation with or without TPO activation. Two cell lines, BaF3/MPL and UT-7/TPO sensitive or responsive to TPO activation were used. The cells were starved (i.e. growing on medium having less FBS) in […] FBS/RPMI for two hours before treated with 0.1, 1.0, or 2.0 μM of Compound B or vehicle (0.1% DMSO in RPMI) for 2 hours at 37° C. To examine the TPO-activated phosphorylation, the cells were then treated or activated with 50 ng/mL of human recombinant TPO (Peprotech) for 10 minutes at 37° C. The TPO activation or treatment may reflect the conditions in diseased cells as the PI3K pathway is activated by TPO in myelofibrosis. After treating with compound and/or TPO, the cells were collected, lysed by lysis buffer (Cell Signaling), separated by SDS-PAGE, and analyzed by the Western blot using antibodies specific to p-AKT Ser473 or pS6 Ser235/236 (Cell Signaling). The phosphorylation levels in treated cells were calculated and compared to those of untreated cells (i.e. vehicle as negative control).

[1] = Plasma concentration in patient at clinical dose; type: in vivo, human; details: clinical dose 150 mg, twice a day
Ri-1 DLBCL cells = experiment: Cell death assay (Annexin V/7AAD) in Ri-1 DLBCL cells; type: cell-based; details: 3 days
Experimental: Further, whole blood (WB) autologous B-cell depletion and cell-death induction assays were conducted as described in Mossner et al., Blood 115:4393-402, 2010. For cell death assay: Ri-1 DLBCL cells were seeded at 15,000 cells/well in 96-well plates. Cells were preincubated with Compound B or DMSO for 1 hour before the addition of antibody. Plates were incubated at 37° C. in a humidified CO2 chamber for 3 days. Cells were washed once with PBS and treated with Accutase for 15 minutes before being stained with Guava Nexin® reagent and analyzed on the Guava EasyCyte flow cytometer (Merck Millipore).
After 3 days of incubation, cell death was assessed by Annexin V/7AAD staining.

[2] = system: NK-cell expression of CD107a and CD16; experiment: Antibody potency and NK-cell expression of CD107a and CD16; type: cell-based; details: data not shown

CC[C@H](Nc1ncnc2[nH]cnc12)c1nc2cccc(F)c2c(=O)n1-c1ccccc1 [Compound B, (S)-2-(1-((9H-purin-6-yl)amino)propyl)-5-fluoro-3-phenylquinazolin-4(3H)-one]
normalized percentage of basal AKT phosphorylation (p-AKT) (p-AKT Ser473; 0.02 μM 2 h, naïve MF patients): 99% and 102% and 83% and 88% and 84% | normalized percentage of basal AKT phosphorylation (p-AKT) (p-AKT Ser473; 0.02 μM 2 h, rux-treated MF patients): 88% and 89% (2×) and 91% and 57% and 96% and 100% | normalized percentage of basal AKT phosphorylation (p-AKT) (p-AKT Ser473; 0.2 μM 2 h, naïve MF patients): 64% and 127% and 75% and 76% and 81% and 72% | normalized percentage of basal AKT phosphorylation (p-AKT) (p-AKT Ser473; 0.2 μM 2 h, rux-treated MF patients): 85% and 78% and 81% and 82% (2×) and 52% and 87% | normalized percentage of basal AKT phosphorylation (p-AKT) (p-AKT Ser473; 2 μM 2 h, naïve MF patients): 55% and 96% and 66% (2×) and 70% and 47% | normalized percentage of basal AKT phosphorylation (p-AKT) (p-AKT Ser473; 2 μM 2 h, rux-treated MF patients): 69% and 77% and 83% and 84% and 43% and 98% and 79% | reduced p-S6 levels vs vehicle (pS6 Ser235/236; 0.1 μM 2 h): 24% | reduced p-S6 levels vs vehicle (pS6 Ser235/236; 1.0 μM 2 h): 27% | reduced p-S6 levels vs vehicle (pS6 Ser235/236; 2.0 μM 2 h): 41% | maximal average plasma concentration (Cmax), adjusted for protein binding [1]: 256 nM | Percentage of total Annexin V+ cells (Ri-1 DLBCL cells; 100 nM Compound B alone): 28% and 27% | Percentage of total Annexin V+ cells (Ri-1 DLBCL cells; 300 nM Compound B alone): 31% and 33% | Percentage of total Annexin V+ cells (Ri-1 DLBCL cells; 600 nM Compound B alone): 35% and 37% | reduction of the potency of both anti-CD20 antibodies ([2]; Compound B 256 nM with obinutuzumab or rituximab 0.01-1000 ng/mL): 0 to 15% | NK-cell degranulation, surface expression of CD107a ([2]; in 2 of 3 samples): inhibited NK-cell degranulation
